Results published in patent publication US9718851B2, “Deuterated nucleoside/tide derivatives” (Enanta Pharmaceuticals, Inc., priority 2014, dated 2017).

Each compound was assayed on HCV replicon RNA, genotype 1a (Huh-1a7 replicon cell line) (assay: HCV Replicon Assay - qRT-PCR, genotype 1a replicon). Conditions: Hepatitis C virus; HCV genotype 1a replicon, HCV RNA by qRT-PCR normalized to GAPDH RNA.
Type: cell-based, HCV (strain H77
Excerpt: HCV replicon cell lines (kindly provided by R. Bartenschlager) isolated from colonies as described by Lohman et al. (Lohman et al. (1999) Science 285: 110-113, expressly incorporated by reference in its entirety) and used for all experiments. One of the HCV replicon cell lines (strain Conl, genotype 1b) has the nucleic acid sequence set forth in EMBL Accession No.: AJ242651, the coding sequence of which is from nucleotides 1801 to 8406. Another replicon cell line (strain H77, genotype 1a) was constructed as described by Yi et al. (Yi et al. (2004) Journal of Virology 78(15):7904-15). The coding sequences of the published HCV replicons were synthesized and subsequently assembled in plasmids using standard molecular biology techniques.
One replicon cell line (“SGR 11-7”) stably expresses HCV replicon RNA, genotype 1b, which consists of (i) the HCV 5′UTR fused to the first 12 amino acids of the capsid protein, (ii) the neomycin phosphotransferase gene (neo), (iii) the IRES from encephalomyocarditis virus (EMCV), and (iv) HCV NS2 to NS5B genes and the HCV 3′UTR. Another replicon cell line (“Huh-1a7”) described by Yi et al. (Yi et al. (2004) Journal of Virology 78(15):7904-15, expressly incorporated by reference in its entirety) stably expresses HCV replicon RNA, genotype 1a, which consists of (i) the HCV 5′UTR fused to the first 12 amino acids of the capsid protein, (ii) the HIV tat protein, (iii) the neomycin phosphotransferase gene (neo), (iv) the IRES from encephalomyocarditis virus (EMCV), and (v) HCV NS3 to NS5B genes that harbor cell culture adaptive mutations (Q1067R, K1691R, S2204I) and the HCV 3′UTR. […]
EC50 values of single agent compounds were determined by HCV RNA detection using quantitative RT-PCR, according to the manufacturer's instructions, with a TAQMAN® One-Step RT-PCR Master Mix Reagents Kit (Cat# AB 4309169, Applied Biosystems) on an ABI Model 7500 thermocycler. EC50 values of combinations are similarly determined by HCV RNA detection using quantitative RT-PCR. The TAQMAN primers to use for detecting and quantifying HCV RNA obtained from Integrated DNA Technologies. HCV RNA is normalized to GAPDH RNA levels in drug-treated cells, which is detected and quantified using the Human GAPDH Endogenous Control Mix (Applied Biosystems, AB 4310884E). […] Chemical agent cytotoxicity is evaluated using an MTS assay according to the manufacturer's directions (Promega). […]
`[2H][C@]1(CO[P@@](=O)(N[C@@H](C)C(=O)OC(C)C)Oc2ccccc2)O[C@@H](n2ccc(=O)[nH]c2=O)[C@](C)(F)[C@@H]1O` [Example 2] showed an EC50 of 100 to 1000 nM.
Work on `[2H][C@@]1(O)[C@@H](CO[P@@](=O)(N[C@@H](C)C(=O)OC(C)C)Oc2ccccc2)O[C@@H](n2ccc(=O)[nH]c2=O)[C@]1(C)F` [Example 1] yielded an EC50 of 100 to 1000 nM.
`[2H]C([2H])(O[P@@](=O)(N[C@@H](C)C(=O)OC(C)C)Oc1ccccc1)[C@H]1O[C@@H](n2ccc(=O)[nH]c2=O)[C@](C)(F)[C@@H]1O` [Example 3] showed an EC50 of 100 to 1000 nM.
For `[2H]C([2H])(O[P@@](=O)(N[C@@H](C)C(=O)OC(C)C)Oc1ccccc1)[C@@]1([2H])O[C@@H](n2ccc(=O)[nH]c2=O)[C@](C)(F)[C@@H]1O` [Example 4], the EC50 was 100 to 1000 nM.
